Laboratory results as given in ChEMBL document CHEMBL1137935 (Bioorg Med Chem Lett, 2004).

Columns and labels:
[1] = target: T1, Adenosine receptor A1 (Cavia porcellus) (UniProt P47745); test: Binding affinity against adenosine A1 receptor using [3H]CPX in guinea pig DDT membrane; 354+/-113
T1 sequence (whole entry): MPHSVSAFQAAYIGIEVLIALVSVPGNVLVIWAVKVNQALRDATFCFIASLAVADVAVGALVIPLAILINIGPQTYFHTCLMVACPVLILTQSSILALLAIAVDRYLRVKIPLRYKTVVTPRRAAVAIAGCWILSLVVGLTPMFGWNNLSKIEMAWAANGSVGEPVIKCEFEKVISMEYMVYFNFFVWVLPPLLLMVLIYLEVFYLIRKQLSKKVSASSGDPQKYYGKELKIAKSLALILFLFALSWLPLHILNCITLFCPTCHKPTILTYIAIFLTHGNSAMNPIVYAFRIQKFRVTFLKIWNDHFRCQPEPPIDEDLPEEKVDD

[2] = target: T1, Adenosine receptor A1 (Cavia porcellus); test: Binding affinity against adenosine A1 receptor using [3H]CCPA in guinea pig DDT membrane; type: cell membranes
[3] = target: T1, Adenosine receptor A1 (Cavia porcellus); test: Binding affinity against […] using [35S]GTP-gamma-S, radioligand in guinea pig.; type: functional
[4] = target: T1, Adenosine receptor A1 (Cavia porcellus); test: Binding affinity against adenosine A1 receptor using [3H]CPX in guinea pig DDT membrane; 473+/-329
[5] = target: T1, Adenosine receptor A1 (Cavia porcellus); test: Binding affinity against adenosine A1 receptor using [3H]CPX in guinea pig DDT membrane; type: cell membranes
[6] = target: T1, Adenosine receptor A1 (Cavia porcellus); test: Binding affinity against adenosine A1 receptor using [3H]CCPA in guinea pig DDT membrane; 0.93+/-0.92
[7] = target: T1, Adenosine receptor A1 (Cavia porcellus); test: Binding affinity against adenosine A1 receptor using [3H]CPX in guinea pig DDT membrane; 166+/-75
[8] = target: T1, Adenosine receptor A1 (Cavia porcellus); test: Binding affinity against adenosine A1 receptor using [3H]CPX in guinea pig DDT membrane; 1945+/-1316
[9] = target: T1, Adenosine receptor A1 (Cavia porcellus)
[10] = target: T1, Adenosine receptor A1 (Cavia porcellus); remark: listed apart in the source
[11] = target: T1, Adenosine receptor A1 (Cavia porcellus); remark: listed apart in the source
[12] = target: T1, Adenosine receptor A1 (Cavia porcellus); remark: listed apart in the source
[13] = target: T1, Adenosine receptor A1 (Cavia porcellus); test: Binding affinity against adenosine A1 receptor using [3H]CCPA in guinea pig DDT membrane; 96+/-11
[14] = target: T1, Adenosine receptor A1 (Cavia porcellus); test: Binding affinity against adenosine A1 receptor using [3H]CPX in guinea pig DDT membrane; 338+/-98
[15] = target: T1, Adenosine receptor A1 (Cavia porcellus); test: Binding affinity against adenosine A1 receptor using [3H]CPX in guinea pig DDT membrane; 343+/-137
[16] = target: T1, Adenosine receptor A1 (Cavia porcellus); test: Binding affinity against adenosine A1 receptor using [3H]CPX in guinea pig DDT membrane; 1666+/-556
[17] = target: T1, Adenosine receptor A1 (Cavia porcellus); remark: listed apart in the source
[18] = target: T1, Adenosine receptor A1 (Cavia porcellus); remark: listed apart in the source
[19] = target: T1, Adenosine receptor A1 (Cavia porcellus); test: Binding affinity against adenosine A1 receptor using [3H]CPX in guinea pig DDT membrane; 5497+/-180
[20] = target: T1, Adenosine receptor A1 (Cavia porcellus); test: Binding affinity against adenosine A1 receptor using [3H]CCPA in guinea pig DDT membrane; 971+/-139
[21] = target: T1, Adenosine receptor A1 (Cavia porcellus); test: Binding affinity against adenosine A1 receptor using [3H]CPX in guinea pig DDT membrane; 1143+/-426
[22] = target: T1, Adenosine receptor A1 (Cavia porcellus); test: Binding affinity against adenosine A1 receptor using [3H]CCPA in guinea pig DDT membrane; 160+/-41
[23] = target: T1, Adenosine receptor A1 (Cavia porcellus); test: Binding affinity against adenosine A1 receptor using [3H]CPX in guinea pig DDT membrane; 400+/-38

## COc1ccc2sc(SC[C@H]3OC(n4cnc5c(NC6CCCC6)ncnc54)[C@H](O)[C@@H]3O)nc2c1 (some centres undefined)
[1]
  Ki low: 354 nM
[2]
  Ki high: 222 nM
[3]
  efficacy relative to CPA: 94%

## OC1[C@@H](O)C(n2cnc3c(NC4CCOC4)ncnc32)O[C@@H]1COc1ccccc1Cl (single isomer, unassigned)
[4]
  Ki low: 473 nM
[3]
  efficacy relative to CPA: 62%

## Cn1ccnc1SC[C@H]1OC(n2cnc3c(NC4CCCC4)ncnc32)[C@H](O)[C@@H]1O (some centres undefined)
[5]
  Ki low: 1340 nM
[3]
  efficacy relative to CPA: 112%

## O[C@@H]1[C@@H](CSc2nccs2)OC(n2cnc3c(NC4CCCC4)ncnc32)[C@@H]1O (some centres undefined)
[6]
  Ki high: 0.93 nM
[7]
  Ki low: 166 nM
[3]
  efficacy relative to CPA: 105%

## OC1[C@@H](O)C(n2cnc3c(NC4CCOC4)ncnc32)O[C@@H]1CSc1nc2ccc(Cl)cc2o1 (single isomer, unassigned)
[8]
  Ki low: 1940 nM
[3]
  efficacy relative to CPA: 99%

## OC1[C@@H](O)[C@H](n2cnc3c(NC4CCOC4)ncnc32)O[C@@H]1CSc1ccc(F)cc1F (single isomer, unassigned; 26)
[5]
  Ki low: 494 nM
[3]
  efficacy relative to CPA: 88%

## Cc1cccc(Cl)c1SC[C@H]1OC(n2cnc3c(NC4CCOC4)ncnc32)[C@H](O)C1O (single isomer, unassigned)
[9]
  Ki low: 7.29 µM
[10]
  Ki high: 233 nM
[3]
  efficacy relative to CPA: 18%

## OC[C@H]1O[C@@H](n2cnc3c(N[C@@H]4CCOC4)ncnc32)[C@H](O)C1O (single isomer, unassigned)
[11]
  Ki low: 543 nM
[12]
  Ki high: 3.25 nM

## OC1[C@@H](O)C(n2cnc3c(NC4CCOC4)ncnc32)O[C@@H]1CSc1ccccc1Cl (single isomer, unassigned)
[13]
  Ki high: 96 nM
[14]
  Ki low: 338 nM
[3]
  efficacy relative to CPA: 74%

## OC1[C@@H](O)C(n2cnc3c(NC4CCOC4)ncnc32)O[C@@H]1COc1ccc(F)cc1 (single isomer, unassigned)
[15]
  Ki low: 343 nM
[3]
  efficacy relative to CPA: 71%

## COc1ccc2nc(SC[C@H]3OC(n4cnc5c(NC6CCCC6)ncnc54)[C@H](O)[C@@H]3O)sc2c1 (some centres undefined)
[16]
  Ki low: 1670 nM
[3]
  efficacy relative to CPA: 105%

## O[C@@H]1[C@@H](CSc2nc3ccccc3s2)OC(n2cnc3c(NC4CCCC4)ncnc32)[C@@H]1O (some centres undefined)
[17]
  Ki low: 1770 nM
[3]
  efficacy relative to CPA: 95%

## OC[C@H]1O[C@@H](n2cnc3c(NC4CCCC4)ncnc32)[C@H](O)[C@@H]1O
[2]
  Ki high: 0.8 nM
[18]
  Ki low: 19.5 nM
[3]
  efficacy relative to CPA: 100%

## OC1[C@@H](O)[C@H](n2cnc3c(NC4CCOC4)ncnc32)O[C@@H]1CSc1ccc(F)cc1F (single isomer, unassigned; 19)
[19]
  Ki low: 5.5 µM
[20]
  Ki high: 971 nM
[3]
  efficacy relative to CPA: 86%

## Cc1ccccc1SC[C@H]1OC(n2cnc3c(NC4CCOC4)ncnc32)[C@H](O)C1O (single isomer, unassigned)
[21]
  Ki low: 1140 nM
[22]
  Ki high: 160 nM
[3]
  efficacy relative to CPA: 81%

## OC1[C@@H](O)C(n2cnc3c(NC4CCOC4)ncnc32)O[C@@H]1CSc1nc2ccccc2s1 (single isomer, unassigned)
[23]
  Ki low: 400 nM
[3]
  efficacy relative to CPA: 100%
